Data reported in patent US9963696B2, “Method for screening mutant microorganism overproducing target metabolite using synthetic suicide genetic circuit” (Korea University Research and Business Foundation, priority 2014, dated 2018).

Columns and labels:
[1] = system: FMN ribozyme; assay: growth of yeast carrying the FMN suicide riboswitch with added or intracellularly produced FMN; format: cell-based, Saccharomyces cerevisiae
Source text: Using the same method as described in Example 1-1, a FMN ribozyme (Proc. Natl. Acad. Sci. USA Vol. 96, pp. 3584-3589, March 1999, “Engineering precision RNA molecular switches”)
Biochemistry was inserted into the 3′ UTR of the FCY1 gene (NC_001148.4). In order to examine whether the suicide riboswitch operates properly, an experiment for examining whether the growth rate of cells having the suicide riboswitch introduced therein changes depending on the concentration of FMN in the cells was performed.
Specifically, FMN was externally added to the culture medium.
In addition, the FMN1 gene was cloned into a p413GPD plasmid, which was then transformed into a strain having the FMN suicide riboswitch introduced therein so that FMN was produced in the cells. Also, the cells were treated with fluorocytosine. […] In addition, it could be seen that the absorbance at 660 nm was high due to the production of FMN (FIG. 6c).

[2] = system: glmS ribozyme; assay: growth of yeast carrying the glmS suicide riboswitch with externally added GlcN in the presence of fluorocytosine; format: cell-based, Saccharomyces cerevisiae
Source text: The gene fragment to be inserted was transformed into Saccharomyces cerevisiae BY4742. In order to examine whether the suicide riboswitch was inserted into the gene of the yeast, a colony selected on an SD-URA medium (2% glucose, 0.67% yeast nitrogen base without amino acids, 0.77 g/L CSM-URA dropout mixture) plate was selected. As a result, it could be seen that the glmS ribozyme was inserted into the 3′UTR (untranslated region) of FCY1 locus in the BY4742 strain.
In addition, in order to examine whether the suicide riboswitch operates properly, whether the growth rate of cells having the suicide riboswitch introduced therein changes depending on the concentration of GlcN6P in the cells was examined. In the presence of fluorocytosine, glucosamine (GlcN) was externally added to the culture medium so that it was converted to GlcN6P by intracellular hexokinase.
A BY4742 FGU strain and other strains, which have a suicide riboswitch introduced therein, were cultured in minimal media. For culture of BY4742 FGU, SD-URA medium supplemented with 5 mg/L of fluorocytosine was used. At 2 days after seeding, absorbance was used. To screen the GFA1 mutant library, medium supplemented with 10 mg/L of fluorocytosine was used, and to screen the HAD phosphatase library, medium supplemented with 20 mg/L of fluorocytosine was used (FIG. 2c).

[3] = FMN produced in the cells from FMN1 on p413GPD plasmid, treated with fluorocytosine

SMILES	absorbance ([1]; FMN externally added to culture medium, increasing concentration)	absorbance at 660 nm [1, 3]	growth rate of the cells [1, 3]	growth rate of cells having the suicide riboswitch ([2]; GlcN externally added to culture medium, in the presence of fluorocytosine, increasing GlcN6P concentration)	absorbance at 660 nm ([2]; various concentrations of added GlcN)
Cc1cc2nc3c(=O)[nH]c(=O)nc-3n(C[C@H](O)[C@H](O)[C@H](O)COP(=O)(O)O)c2cc1C [FMN, flavin mononucleotide]	the absorbance also increased	high	the growth rate of the cells was high		
N[C@H]1C(O)O[C@H](CO)[C@@H](O)[C@@H]1O (some centres unmarked) [GlcN, glucosamine]				the growth rate of the cells increased	changed depending on the concentration of GlcN
